Results on six molecules are retold here after patent US8828928B2, “Amphiphilic peptides and peptide particles” (President and Fellows of Harvard College, priority 2011, dated 2014).

The nature of data set [1]: Solubility of the peptides in water and organic solvents. Type of data set: physicochemical.
Data set [2] in a line: Stability of nucleic acid-containing peptide particles in water and at physiological salt strength. Type of data set: physicochemical. The text has this: It should be noted that a mixture of CD3 peptides and nucleic acid molecules can self-assemble to form stable particles in pure water; however, they are generally not stable and dissolve, responding to increasing salt strengths and higher temperatures.
Accordingly, in some embodiments, a mixture of fully-acetylated amphiphilic peptides (e.g., CD3ac peptides), partially-acetylated or non-acetylated amphiphilic peptides (e.g., CD3 peptides) and nucleic acid molecules can be prepared to form stable peptide particles containing nucleic acid molecules (e.g., DNA or RNA including siRNA). […] It was determined that the presence of CD3ac peptides stabilizes ssDNA-containing peptide particles at physiological conditions. All the three components co-precipitated to form ssDNA-containing peptide particles that were stable at the corresponding salt strength.

A short description of data set [3]: Particle diameter and corona thickness by negative staining TEM. Type of data set: physicochemical. On the procedure:
PNPs were assembled by mixing stock solutions of CD3ac, Tfn-AF568 and Flutax-2 to yield final concentrations of 123 μM CD3ac, 6 μM Flutax-2 and 10 μg/mL Tfn-AF568 in H2O:EtOH (1:1, v/v). Emulsification was induced by a first dilution step (1:1, H2O) followed by an equilibration period of 15 minutes before the ethanol content was further reduced to […] by the second dilution step (1:1, H2O). 50 μL aliquots of the resulting suspension were applied to 24-well sitting drop crystallization plates (Hampton Research, Cryschem) and counter-evaporated 3 times against 1 mL H2O during six hours.
PNP samples were prepared as described above. 5 μL of PNPs suspended in H2O were applied to a carbon film coated copper grid (400 square mesh, Electron Microscopy Sciences) and dried. The sample was stained with 10 μL 1% uranyl acetate during one minute. Excess stain was removed with a filter paper and subsequently applied to a Tecnai G^2 Spirit BioTWIN.

Data set [4] can be described thus: Size of CD3ac beads by SEM and dynamic light scattering. Type of data set: physicochemical. The conditions noted are these: SEM and DLS; initially dissolved CD3ac 123×10^−6 M. On the procedure: Scanning electron microscopy (SEM) was carried out on a Hitachi S-4800. SEM sample holders were cooled to −196° C. before a drop of the bead suspension was directly applied to the cold metal surface. The frozen sample on the plate was subsequently lyophilized, sputtered with platinum and analyzed.
Dynamic light scattering was measured on an ALV/CGS-8F platform based goniometer system equipped with an ALV/-5000/E correlator and an Argon-Ion laser with a wavelength of […] (35 mW) at scattering angles between 30° and 150°. An ALV-5000/E correlator calculates the photon intensity autocorrelation function g2(t). All experiments were performed at T=293 K and evaluated by second order cumulant fit (considering previously determined spherical particle shape by SEM). Polydispersities were determined by the contin-algorithm at all angles and never exceeded 0.11. […] For both angular and concentration dependence, a hydrodynamic radius was calculated from the Stokes-formula
[formula] where rh is the hydrodynamic radius of spherical particles, D is the diffusion constant, kB is the Boltzmann constant, T is the absolute temperature and is the viscosity of water. A graph of 1/rh versus angle (concentration) was plotted and the hydrodynamic radius (rh0) was calculated by extrapolating both concentration and angle measurements to zero. […]

Data set [5] can be described thus: Estimating bead volume and density of CD3ac precipitates. It counts as physicochemical. On the procedure: In order to estimate the density of CD3ac precipitates, beads (307.5×10^−6 M CD3ac starting concentration) were prepared large enough to exceed the diffraction limit of visible light. A low concentration of RB (10×10^−6 M) was co-precipitated to allow an estimate of the bead diameter by confocal fluorescence microscopy (1.35 μm) and facilitate counting on a hemacytometer (Hausser Scientific). An average of 72 beads were counted in an observed cell volume of 250,000 μm^3 that equals a bead volume fraction of 3.71×10^−4. A solution of 50 μL 307.5×10^−6M CD3ac thus contains a total bead volume of […] and the density of CD3ac can be determined (ρCD3ac≈1.35 g/cm^3). The logarithmic partition coefficient of RB in an aqueous solution of CD3ac beads was calculated according to […]

In a further data set the test system is CHO cells. The data set is described as follows: Release of encapsulated Flutax-2 into the cytosol of CHO cells. It counts as cell-based, Chinese hamster. Conditions: 24 hours, 0.67 μM Flutax-2. On the procedure: To assess whether binding and internalization of PNPs can result in the selective import of small molecule cargo, the release of encapsulated Flutax-2 into cells was analyzed 24 hours post addition of PNPFlutax-2^Tfn-AF568 into the cells (FIGS. 13A-13I). Flutax-2 is an Oregon Green (OG) modified derivative of paclitaxel(19), a mitotic inhibitor applied in cancer therapy (20). Unlike its unlabeled form, Flutax-2 is charged and water-soluble at the applied concentration and does consequently not permeate cell membranes. Thus, it was used a model compound to investigate efficiency and specificity of small molecule delivery by PNPs to the cytosol. […] Flutax-2 emission in the cytosol was averaged to quantify the amount of delivered compound into the cells.
CHO cell lines were grown in F12:DMEM 1:1 (Cellgro, 10-090) plus 10% fetal bovine serum (Gibco). […] Samples were fixed with 3% paraformaldehyde (Sigma, P6148) in PBS, mounted on glass slides using fluorescent mounting medium (Dako, 53023) and analyzed within 24 hours.
Fixed cells were analyzed on a Nikon Ti inverted microscope equipped with 60× Plan Apo NA 1.4 objective lens. DAPI fluorescence was excited with a 360/40 filter and collected with a 460/50 emission filter. Oregon Green fluorescence was excited with a 360/40 and collected with a 480/40 emission filter. […]

Take `CC(C)C[C@@H](NC(=O)[C@H](Cc1c[nH]c2ccccc12)NC(=O)[C@@H](CC(C)C)NC(=O)[C@H](Cc1c[nH]c2ccccc12)NC(=O)[C@@H](CC(C)C)NC(=O)[C@H](Cc1c[nH]c2ccccc12)NC(=O)[C@@H](N)CCCCN)C(=O)N[C@@H](Cc1c[nH]c2ccccc12)C(N)=O` (racemic) [CD1, H-LK-LW-DL-LW-DL-LW-DL-LW-NH2]: in data set [1], the solubility in water result is “water soluble”.

For `CC(C)C[C@@H](NC(=O)[C@H](Cc1c[nH]c2ccccc12)NC(=O)[C@@H](CC(C)C)NC(=O)[C@H](Cc1c[nH]c2ccccc12)NC(=O)[C@@H](CC(C)C)NC(=O)[C@H](Cc1c[nH]c2ccccc12)NC(=O)[C@H](CCCCN)NC(=O)[C@@H](N)CCCCN)C(=O)N[C@@H](Cc1c[nH]c2ccccc12)C(N)=O` (racemic) [CD2, H-LK-LK-LW-DL-LW-DL-LW-DL-LW-NH2], the solubility in water entry in data set [1] was “water soluble”.

For the molecule `CC(C)C[C@@H](NC(=O)[C@H](Cc1c[nH]c2ccccc12)NC(=O)[C@@H](CC(C)C)NC(=O)[C@H](Cc1c[nH]c2ccccc12)NC(=O)[C@@H](CC(C)C)NC(=O)[C@H](Cc1c[nH]c2ccccc12)NC(=O)[C@H](CCCCN)NC(=O)[C@H](CCCCN)NC(=O)[C@@H](N)CCCCN)C(=O)N[C@@H](Cc1c[nH]c2ccccc12)C(N)=O` (racemic) [CD3, H-LK-LK-LK-LW-DL-LW-DL-LW-DL-LW-NH2], the solubility in water result in data set [1] is “water soluble”. In data set [2], the “particle stability at increasing / physiological salt strength” value is “not stable” and the “particle stability in pure water” value was “stable”.

Take `CC(=O)NCCCC[C@H](NC(C)=O)C(=O)N[C@@H](CCCCNC(C)=O)C(=O)N[C@@H](CCCCNC(C)=O)C(=O)N[C@@H](Cc1c[nH]c2ccccc12)C(=O)N[C@H](CC(C)C)C(=O)N[C@@H](Cc1c[nH]c2ccccc12)C(=O)N[C@H](CC(C)C)C(=O)N[C@@H](Cc1c[nH]c2ccccc12)C(=O)N[C@H](CC(C)C)C(=O)N[C@@H](Cc1c[nH]c2ccccc12)C(N)=O` (racemic) [CD3ac, Ac-LK(Ac)-LK(Ac)-LK(Ac)-LW-DL-LW-DL-LW-DL-LW-NH2]: the “thickness of the protein corona” value in data set [3] is on record as 9.0+/−2.1 nm. Besides, the average particle diameter in data set [3] (assembled in the absence of Tfn-AF568) is 100 nm; in data set [3] (assembled in the presence of Tfn-AF568, excluding corona), 51 nm. In addition, the particle radius result in data set [4] was “about 260 nm”. The solubility in water entry in data set [1] is given as “insoluble”. The “solubility in organic solvents” value in data set [1] (EtOH, iPrOH, DMSO, DMF, MeCN) is “readily dissolves”. Besides, the bead diameter in data set [5] (307.5×10^−6 M CD3ac starting concentration, 10×10^−6 M RB, confocal fluorescence microscopy) is reported as 1.35 μm. Besides, the “density of CD3ac precipitates (ρCD3ac)” value in data set [5] (from bead count and bead volume fraction) is “≈ 1.35 g/cm^3”.

With `CC(C)C[C@@H](NC(=O)[C@H](Cc1c[nH]c2ccccc12)NC(=O)[C@@H](CC(C)C)NC(=O)[C@H](Cc1c[nH]c2ccccc12)NC(=O)[C@@H](CC(C)C)NC(=O)[C@H](Cc1c[nH]c2ccccc12)NC(=O)[C@H](CCCCN)NC(=O)[C@H](CCCCN)NC(=O)[C@H](CCCCN)NC(=O)[C@@H](N)CCCCN)C(=O)N[C@@H](Cc1c[nH]c2ccccc12)C(N)=O` (racemic) [CD4, H-LK-LK-LK-LK-LW-DL-LW-DL-LW-DL-LW-NH2], in data set [1], the solubility in water entry was “water soluble”.

On to Flutax-2, for which the “Flutax-2 emission in the cytosol” value with CHO cells is reported as “could not be detected”.
